Columns and labels:
[1] = Antiproliferative activity against human SKOV3 cells assessed as growth inhibition after 48 hrs by sulforhodamine B assay; type: functional; settings: SK-OV-3, 48 h; for CC50: read-out: LC50 (the source's name)
[2] = Antiproliferative activity against human SNB19 cells assessed as growth inhibition after 48 hrs by sulforhodamine B assay; type: functional; settings: SNB-19, 48 h
[3] = Antiproliferative activity against human HL-60(TB) cells assessed as growth inhibition after 48 hrs by sulforhodamine B assay; type: functional; settings: HL-60, 48 h
MDA-MB-231 = assay: Antiproliferative activity against human MDA-MB-231 cells assessed as growth inhibition after 48 hrs by sulforhodamine B assay; type: functional; settings: MDA-MB-231, 48 h; for CC50: read-out: LC50 (the source's name)
CYP2D6 = CYP2D6 (Homo sapiens, UniProt P10635); assay: Inhibition of recombinant human CYP2D6 assessed as remaining enzyme activity using CYP2D6 blue as substrate at 10 uM after 5 mins in presence of NADP by fluorescence plate reader analysis; type: ADME; settings: recombinant human CYP2D6, probe CYP2D6 blue, read-out: Activity
Chain of CYP2D6 (P10635 whole entry): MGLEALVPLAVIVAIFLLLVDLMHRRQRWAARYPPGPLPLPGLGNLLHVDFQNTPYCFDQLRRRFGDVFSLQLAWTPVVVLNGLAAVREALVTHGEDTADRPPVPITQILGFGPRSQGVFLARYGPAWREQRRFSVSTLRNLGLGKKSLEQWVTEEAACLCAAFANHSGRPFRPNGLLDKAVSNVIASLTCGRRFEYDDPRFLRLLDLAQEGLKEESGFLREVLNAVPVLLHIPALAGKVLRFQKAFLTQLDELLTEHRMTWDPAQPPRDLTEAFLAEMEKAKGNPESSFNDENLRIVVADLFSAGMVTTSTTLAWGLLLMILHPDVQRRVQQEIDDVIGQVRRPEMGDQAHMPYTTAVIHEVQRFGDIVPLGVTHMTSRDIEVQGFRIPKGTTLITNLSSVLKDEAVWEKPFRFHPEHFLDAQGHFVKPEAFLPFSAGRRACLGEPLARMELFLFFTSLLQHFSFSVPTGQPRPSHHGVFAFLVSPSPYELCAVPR

[4] = Antiproliferative activity against human HL-60(TB) cells assessed as cell growth at 10^-7 M after 48 hrs by sulforhodamine B assay; type: functional; settings: HL-60, 48 h, read-out: Activity
K562 = assay: Antiproliferative activity against human K562 cells assessed as cell growth at 10^-7 M after 48 hrs by sulforhodamine B assay; type: functional; settings: K562, 48 h, read-out: Activity
[5] = Antiproliferative activity against human SF539 cells assessed as cell growth at 10^-7 M after 48 hrs by sulforhodamine B assay; type: functional; settings: SF-539, 48 h, read-out: Activity
[6] = Antiproliferative activity against human IGROV1 cells assessed as cell growth at 10^-7 M after 48 hrs by sulforhodamine B assay; type: functional; settings: IGROV-1, 48 h, read-out: Activity
[7] = Antiproliferative activity against human OVCAR3 cells assessed as cell growth at 10^-7 M after 48 hrs by sulforhodamine B assay; type: functional; settings: OVCAR-3, 48 h, read-out: Activity
SN12C [8] = assay: Antiproliferative activity against human SN12C cells assessed as cell growth at 10^-7 M after 48 hrs by sulforhodamine B assay; type: functional; settings: read-out: Activity
[9] = tested on: Serine/threonine-protein kinase B-raf (Homo sapiens), P15056 [V600E]; assay: Inhibition of BRAF V600E mutant (unknown origin) at 10 uM measured after 40 mins by scintillation counting
Chain of Serine/threonine-protein kinase B-raf (Homo sapiens), P15056 [V600E] (P15056 whole entry V600E): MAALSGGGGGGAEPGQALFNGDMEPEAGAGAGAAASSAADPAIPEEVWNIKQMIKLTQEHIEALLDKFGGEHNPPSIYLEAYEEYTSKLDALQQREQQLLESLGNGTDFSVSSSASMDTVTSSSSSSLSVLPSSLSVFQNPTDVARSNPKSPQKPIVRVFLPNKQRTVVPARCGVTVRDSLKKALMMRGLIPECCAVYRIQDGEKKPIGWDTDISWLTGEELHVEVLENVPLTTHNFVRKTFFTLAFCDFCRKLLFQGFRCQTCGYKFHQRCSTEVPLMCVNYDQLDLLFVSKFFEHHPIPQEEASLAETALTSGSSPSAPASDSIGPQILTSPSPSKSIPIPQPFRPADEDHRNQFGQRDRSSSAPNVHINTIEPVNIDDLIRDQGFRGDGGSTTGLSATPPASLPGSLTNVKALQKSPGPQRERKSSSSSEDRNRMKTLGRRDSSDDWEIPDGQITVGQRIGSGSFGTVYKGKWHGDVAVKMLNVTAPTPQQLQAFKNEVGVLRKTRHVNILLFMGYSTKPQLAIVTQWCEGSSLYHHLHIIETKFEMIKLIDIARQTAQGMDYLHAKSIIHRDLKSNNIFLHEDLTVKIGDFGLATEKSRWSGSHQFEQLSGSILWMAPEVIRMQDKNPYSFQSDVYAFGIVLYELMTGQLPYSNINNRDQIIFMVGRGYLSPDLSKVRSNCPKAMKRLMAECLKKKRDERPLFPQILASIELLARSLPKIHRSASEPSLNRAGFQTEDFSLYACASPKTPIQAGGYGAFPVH

CYP3A4 = CYP3A4 (Homo sapiens, UniProt P08684); assay: Inhibition of recombinant human CYP3A4 assessed as remaining enzyme activity using CYP3A4 blue as substrate at 10 uM after 5 mins in presence of NADP by fluorescence plate reader analysis; type: ADME; settings: recombinant human CYP3A4, probe CYP3A4 blue, read-out: Activity
Chain of CYP3A4 (P08684 whole entry): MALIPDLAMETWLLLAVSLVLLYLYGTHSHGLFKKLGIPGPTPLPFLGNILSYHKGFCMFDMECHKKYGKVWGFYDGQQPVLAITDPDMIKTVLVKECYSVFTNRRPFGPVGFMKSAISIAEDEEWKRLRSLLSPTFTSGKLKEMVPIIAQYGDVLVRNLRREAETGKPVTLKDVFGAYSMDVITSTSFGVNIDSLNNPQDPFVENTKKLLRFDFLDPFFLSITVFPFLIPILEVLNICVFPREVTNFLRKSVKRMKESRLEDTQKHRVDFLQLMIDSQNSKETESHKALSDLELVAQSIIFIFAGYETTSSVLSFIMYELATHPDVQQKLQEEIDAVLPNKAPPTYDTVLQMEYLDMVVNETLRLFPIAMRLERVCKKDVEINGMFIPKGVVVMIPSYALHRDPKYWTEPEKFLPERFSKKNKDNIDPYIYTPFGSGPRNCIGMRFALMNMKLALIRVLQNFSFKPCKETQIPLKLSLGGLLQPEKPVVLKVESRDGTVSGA

A549 [10] = assay: Antiproliferative activity against human A549/ATCC cells assessed as cell growth at 10^-8 M after 48 hrs by sulforhodamine B assay; type: functional; settings: A549, 48 h, read-out: Activity
NCI-H226 = assay: Antiproliferative activity against human NCI-H226 cells assessed as cell growth at 10^-8 M after 48 hrs by sulforhodamine B assay; type: functional; settings: NCI-H226, 48 h, read-out: Activity
[11] = Antiproliferative activity against human SF268 cells assessed as cell growth at 10^-8 M after 48 hrs by sulforhodamine B assay; type: functional; settings: SF-268, 48 h, read-out: Activity
[12] = Antiproliferative activity against human SF295 cells assessed as cell growth at 10^-8 M after 48 hrs by sulforhodamine B assay; type: functional; settings: SF-295, 48 h, read-out: Activity
NCI-H460 = assay: Antiproliferative activity against human NCI-H460 cells assessed as cell growth at 10^-6 M after 48 hrs by sulforhodamine B assay; type: functional; settings: NCI-H460, 48 h, read-out: Activity
[13] = Antiproliferative activity against human SW620 cells assessed as cell growth at 10^-6 M after 48 hrs by sulforhodamine B assay; type: functional; settings: SW-620, 48 h, read-out: Activity
[14] = Antiproliferative activity against human SF539 cells assessed as cell growth at 10^-6 M after 48 hrs by sulforhodamine B assay; type: functional; settings: SF-539, 48 h, read-out: Activity
A549 [15] = assay: Antiproliferative activity against human A549/ATCC cells assessed as cell growth at 10^-4 M after 48 hrs by sulforhodamine B assay; type: functional; settings: A549, 48 h, read-out: Activity
NCI-H522 = assay: Antiproliferative activity against human NCI-H522 cells assessed as cell growth at 10^-4 M after 48 hrs by sulforhodamine B assay; type: functional; settings: NCI-H522, 48 h, read-out: Activity
[16] = Antiproliferative activity against human COLO205 cells assessed as cell growth at 10^-4 M after 48 hrs by sulforhodamine B assay; type: functional; settings: COLO 205, 48 h, read-out: Activity
HT-29 = assay: Antiproliferative activity against human HT-29 cells assessed as cell growth at 10^-4 M after 48 hrs by sulforhodamine B assay; type: functional; settings: HT-29, 48 h, read-out: Activity
[17] = Antiproliferative activity against human SW620 cells assessed as cell growth at 10^-4 M after 48 hrs by sulforhodamine B assay; type: functional; settings: SW-620, 48 h, read-out: Activity
MDA-MB-435 = assay: Antiproliferative activity against human MDA-MB-435 cells assessed as cell growth at 10^-8 M after 48 hrs by sulforhodamine B assay; type: functional; settings: MDA-MB-435, 48 h, read-out: Activity
SK-MEL-2 = assay: Antiproliferative activity against human SK-MEL-2 cells assessed as cell growth at 10^-8 M after 48 hrs by sulforhodamine B assay; type: functional; settings: SK-MEL-2, 48 h, read-out: Activity
[18] = Antiproliferative activity against human IGROV1 cells assessed as cell growth at 10^-8 M after 48 hrs by sulforhodamine B assay; type: functional; settings: IGROV-1, 48 h, read-out: Activity
[19] = Antiproliferative activity against human DU145 cells assessed as cell growth at 10^-8 M after 48 hrs by sulforhodamine B assay; type: functional; settings: DU-145, 48 h, read-out: Activity
SN12C [20] = assay: Antiproliferative activity against human SN12C cells assessed as cell growth at 10^-6 M after 48 hrs by sulforhodamine B assay; type: functional; settings: read-out: Activity
[21] = Antiproliferative activity against human Hs 578T cells assessed as cell growth at 10^-6 M after 48 hrs by sulforhodamine B assay; type: functional; settings: read-out: Activity
[22] = Antiproliferative activity against human IGROV1 cells assessed as cell growth at 10^-4 M after 48 hrs by sulforhodamine B assay; type: functional; settings: IGROV-1, 48 h, read-out: Activity
[23] = Antiproliferative activity against human SKOV3 cells assessed as cell growth at 10^-4 M after 48 hrs by sulforhodamine B assay; type: functional; settings: SK-OV-3, 48 h, read-out: Activity
[24] = Antiproliferative activity against human RXF393 cells assessed as cell growth at 10^-4 M after 48 hrs by sulforhodamine B assay; type: functional; settings: RXF 393, 48 h, read-out: Activity
[25] = Antiproliferative activity against human Hs 578T cells assessed as cell growth at 10^-4 M after 48 hrs by sulforhodamine B assay; type: functional; settings: read-out: Activity

SMILES: CNC(=O)c1cc(Oc2ccc(NC(=O)Nc3ccc(Cl)c(C(F)(F)F)c3)cc2)ccn1 [SORAFENIB]
- GI50 [1]: 2.51 µM
- TGI [1]: 12.6 µM
- CC50 [1]: 63.1 µM
- GI50 [2]: 3.16 µM
- TGI [2]: 15.8 µM
- GI50 [3]: 1.58 µM
- GI50 (MDA-MB-231): 1.26 µM
- TGI (MDA-MB-231): 3.98 µM
- CC50 (MDA-MB-231): 20 µM

SMILES: CNC(=O)c1cc(Oc2ccc3nc(NC(=O)Nc4cc(C(F)(F)F)cc(C(F)(F)F)c4)sc3c2)ccn1
- activity at 5 min, 10 µM (CYP2D6): 91.5%
- GI50 [1]: 1.43 µM
- TGI [1]: 3.18 µM
- CC50 [1]: 7.09 µM
- growth at 0.1 µM [4]: 31%
- growth at 0.1 µM (K562): 97%
- growth at 0.1 µM [5]: 99%
- growth at 0.1 µM [6]: 89%
- growth at 0.1 µM [7]: 97%
- growth at 0.1 µM (SN12C [8]): 104%
- GI50 [2]: 1.34 µM
- LC50 (50% lethal concentration) [2]: > 100 µM
- TGI [2]: 4.43 µM
- GI50 [3]: 1.6 µM
- TGI [3]: 4.17 µM
- CC50 ([3]; read-out: LC50 (the source's name)): 20.4 µM
- GI50 (MDA-MB-231): 0.829 µM
- TGI (MDA-MB-231): 2.62 µM
- CC50 (MDA-MB-231): 7.5 µM
- inhibition [9]: 49.9%
- activity at 5 min, 10 µM (CYP3A4): 50.6%
- growth at 0.01 µM (A549 [10]): 104%
- growth at 0.01 µM (NCI-H226): 84%
- growth at 0.01 µM [11]: 97%
- growth at 0.01 µM [12]: 87%
- growth at 1 µM (NCI-H460): 62%
- growth at 1 µM [13]: 80%
- growth at 1 µM [14]: 63%
- growth at 100 µM (A549 [15]): -97%
- growth at 100 µM (NCI-H522): -67%
- growth at 100 µM [16]: -65%
- growth at 100 µM (HT-29): -82%
- growth at 100 µM [17]: -71%
- growth at 0.01 µM (MDA-MB-435): 92%
- growth at 0.01 µM (SK-MEL-2): 90%
- growth at 0.01 µM [18]: 103%
- growth at 0.01 µM [19]: 101%
- growth at 1 µM (SN12C [20]): 80%
- growth at 1 µM [21]: 73%
- growth at 100 µM [22]: -60%
- growth at 100 µM [23]: -84%
- growth at 100 µM [24]: -70%
- growth at 100 µM [25]: -38%
